These results are taken from publication PMC12311865, “In Vitro Evaluation of the Potential Interactions of Zearalenone-14-sulfate and Zearalenone-14-glucuronide with Human Cytochrome P450 Enzymes, Organic Anion Transporting Polypeptides, and ATP-Binding Cassette Multidrug Transporters” (ACS Omega, 2025).

Like-named read-outs stand apart in the source and are kept apart here. Where only a bound is given, the exact number is not on record here.

The target of one data set is T1, CYP3A4 (Homo sapiens, UniProt P08684).
T1 construct: purchased Merck
T1 sequence (P08684 whole entry): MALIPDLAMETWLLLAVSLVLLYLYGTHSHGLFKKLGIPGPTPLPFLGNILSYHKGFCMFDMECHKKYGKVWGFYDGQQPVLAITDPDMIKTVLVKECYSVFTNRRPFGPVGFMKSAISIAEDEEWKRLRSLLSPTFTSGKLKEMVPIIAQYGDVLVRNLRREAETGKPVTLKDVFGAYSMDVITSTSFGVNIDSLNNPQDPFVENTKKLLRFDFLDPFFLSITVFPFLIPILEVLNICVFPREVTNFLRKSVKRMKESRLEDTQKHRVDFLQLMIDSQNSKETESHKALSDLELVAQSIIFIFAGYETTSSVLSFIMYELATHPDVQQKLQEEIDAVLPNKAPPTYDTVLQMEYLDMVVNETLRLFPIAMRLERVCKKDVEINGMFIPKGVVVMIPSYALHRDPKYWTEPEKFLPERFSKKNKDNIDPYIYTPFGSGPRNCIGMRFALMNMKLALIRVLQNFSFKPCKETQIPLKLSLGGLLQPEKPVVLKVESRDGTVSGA
Nature of the data set: in vitro. In kind it is biochemical. The following applies: testosterone 5 μM. The source says: Testosterone and 6β-hydroxytestosterone were detected at 240 nm.

The target of another data set is T2, OATP1A2 (Homo sapiens, UniProt P46721).
T2 construct: expressed in transfected cells; host or cells: A431
T2 sequence (P46721 1-670): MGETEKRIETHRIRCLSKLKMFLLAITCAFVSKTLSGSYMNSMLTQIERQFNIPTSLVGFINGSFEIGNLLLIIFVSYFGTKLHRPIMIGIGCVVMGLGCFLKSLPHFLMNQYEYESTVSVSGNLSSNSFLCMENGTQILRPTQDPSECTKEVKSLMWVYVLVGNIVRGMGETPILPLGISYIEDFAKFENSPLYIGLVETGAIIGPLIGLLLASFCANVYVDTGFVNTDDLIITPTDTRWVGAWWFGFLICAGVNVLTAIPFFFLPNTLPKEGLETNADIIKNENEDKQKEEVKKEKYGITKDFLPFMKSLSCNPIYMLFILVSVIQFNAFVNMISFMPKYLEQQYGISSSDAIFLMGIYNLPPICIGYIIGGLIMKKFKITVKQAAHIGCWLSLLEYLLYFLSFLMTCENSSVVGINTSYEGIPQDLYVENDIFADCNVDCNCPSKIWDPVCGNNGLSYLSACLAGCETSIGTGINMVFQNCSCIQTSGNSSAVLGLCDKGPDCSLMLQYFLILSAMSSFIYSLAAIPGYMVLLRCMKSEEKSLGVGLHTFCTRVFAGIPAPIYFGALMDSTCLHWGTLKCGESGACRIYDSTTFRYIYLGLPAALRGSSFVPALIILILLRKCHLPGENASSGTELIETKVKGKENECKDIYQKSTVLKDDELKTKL
In words: OATP1A2-mediated SR101 uptake in overexpressing A431 cells. Format: cell-based. How it is done:
The human epidermoid carcinoma cell (A431) overexpressing OATP1A2, OATP1B1, OATP1B3, or OATP2B1 transporters and their mock control cells were generated previously as described. , Cell culture was maintained in DMEM supplemented with 10% fetal bovine serum, 2 mM L-glutamine, 100 units/mL penicillin, and 100 μg/mL streptomycin at 37 °C and 5% CO2.
The inhibitory effects of mycotoxins (Z14S and Z14GA) were examined using indirect fluorescence assays, where pyranine and SR101 were used as fluorescent substrates. , A431 cells overexpressing OATP1A2, OATP1B1/3, or OATP2B1 and their mock-transfected controls were seeded at a density of 8 × 10^4 cells/well onto 96-well plates and incubated for 18–22 h prior to transport measurements. The next day, plated cells were washed three times with 200 μL of PBS (phosphate-buffered saline, pH 7.4) and preincubated with 50 μL of transport buffer (pH 5.5; 125 mM NaCl, 4.8 mM KCl, 1.2 mM CaCl2, 1.2 mM KH2PO4, 12 mM MgSO4, 25 mM MES, and 5.6 mM glucose) with or without increasing concentrations of the mycotoxins tested (0.001–20 μM) for 5 min at 37 °C. The transport inhibition measurements were initiated by adding 50 μL of transport buffer containing the proper fluorescent substrate SR101 (0.5 μM, OATP1A2) or pyranine (10 μM for OATP1B1 or 20 μM for OATP1B3 and OATP2B1). After 10 min (OATP1A2), 15 min (OATP1B1 and OATP2B1), or 30 min (OATP1B3) incubation, the transport was terminated by washing the cells three times with ice-cold PBS. […] Using an Enspire plate reader (PerkinElmer, Waltham, MA), the fluorescence was measured at excitation/emission wavelengths of 460/510 nm (pyranine) or 586/605 nm (SR101).
OATP-mediated transport was obtained by subtracting the activity of the mock control cells from the activity of the OATP-expressing cells. The transport activity (%) of the OATPs was calculated by comparing the fluorescence signal obtained in the absence of the compounds tested (set to 100%).

The target in a further data set is T3, human MRP2 (Homo sapiens, UniProt Q92887).
T3 construct: made in house; host or cells: Sf9 insect cells (baculovirus)
T3 sequence (Q92887 whole entry): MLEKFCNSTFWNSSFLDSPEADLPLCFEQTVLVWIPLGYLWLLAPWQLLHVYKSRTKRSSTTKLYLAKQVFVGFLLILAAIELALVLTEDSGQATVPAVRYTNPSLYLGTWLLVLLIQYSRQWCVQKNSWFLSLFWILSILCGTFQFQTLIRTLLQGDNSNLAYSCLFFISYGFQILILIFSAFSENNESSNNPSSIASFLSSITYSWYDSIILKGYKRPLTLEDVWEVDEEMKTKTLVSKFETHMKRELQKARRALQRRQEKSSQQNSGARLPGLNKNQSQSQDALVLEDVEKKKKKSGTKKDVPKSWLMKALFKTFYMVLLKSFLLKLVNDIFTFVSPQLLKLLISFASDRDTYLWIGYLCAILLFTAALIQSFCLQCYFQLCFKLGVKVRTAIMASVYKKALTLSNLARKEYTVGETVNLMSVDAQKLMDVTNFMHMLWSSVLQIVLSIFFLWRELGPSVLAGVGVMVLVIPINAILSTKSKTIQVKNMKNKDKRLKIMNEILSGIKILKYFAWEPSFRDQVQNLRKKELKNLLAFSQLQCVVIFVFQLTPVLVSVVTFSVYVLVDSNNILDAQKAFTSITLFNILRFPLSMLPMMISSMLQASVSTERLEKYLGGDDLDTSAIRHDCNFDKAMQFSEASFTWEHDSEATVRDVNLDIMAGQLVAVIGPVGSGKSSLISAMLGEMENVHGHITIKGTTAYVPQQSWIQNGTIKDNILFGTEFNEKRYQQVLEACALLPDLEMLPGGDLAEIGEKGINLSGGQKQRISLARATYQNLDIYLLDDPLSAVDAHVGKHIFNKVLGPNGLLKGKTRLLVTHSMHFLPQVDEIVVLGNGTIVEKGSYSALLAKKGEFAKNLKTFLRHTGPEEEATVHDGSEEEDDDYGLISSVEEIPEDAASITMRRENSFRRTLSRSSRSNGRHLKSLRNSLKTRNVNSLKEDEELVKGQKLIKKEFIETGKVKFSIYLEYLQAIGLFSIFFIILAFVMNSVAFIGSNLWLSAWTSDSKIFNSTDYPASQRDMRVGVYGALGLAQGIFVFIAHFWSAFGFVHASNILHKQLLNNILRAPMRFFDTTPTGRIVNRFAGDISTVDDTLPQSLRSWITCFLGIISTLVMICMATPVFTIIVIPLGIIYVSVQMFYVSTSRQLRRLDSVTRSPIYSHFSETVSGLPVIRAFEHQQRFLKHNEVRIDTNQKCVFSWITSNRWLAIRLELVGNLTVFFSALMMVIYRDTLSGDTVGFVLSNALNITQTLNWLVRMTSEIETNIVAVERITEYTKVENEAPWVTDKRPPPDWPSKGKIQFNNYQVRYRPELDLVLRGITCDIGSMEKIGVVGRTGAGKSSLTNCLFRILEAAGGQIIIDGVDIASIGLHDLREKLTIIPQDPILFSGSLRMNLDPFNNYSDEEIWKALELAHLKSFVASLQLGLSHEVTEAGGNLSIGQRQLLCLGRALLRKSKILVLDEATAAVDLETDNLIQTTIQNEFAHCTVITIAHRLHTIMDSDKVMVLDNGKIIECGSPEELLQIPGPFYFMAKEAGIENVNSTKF
In words: biochemical. In kind it is biochemical. Conditions: CDCF 5 μM. As to the method: Experiments were performed in insect membrane vesicles, as described previously. Briefly, human MDR1, BCRP, and MRP2 were expressed in Sf9 insect cells by baculoviruses. On the third day of infection, cells were collected and membrane vesicles were obtained by mechanical disruption and differential centrifugation. To get full activity for BCRP, the cholesterol levels of the vesicles were adjusted to the level of mammalian membranes. Vesicles were stored at −80 °C, and the total protein content of the preparations was measured by the Lowry method (used as a reference for the quantity). […] A 100 μL volume of fluorescence stabilizer was added to the samples (DMSO for LY, 0.1 M H2SO4 for NMQ, and 0.1 M NaOH for CDCF). Fluorescence of samples was measured by plate readers (Victor X3 and Enspire PerkinElmer; Waltham, MA) at appropriate wavelengths (filters in the Victor X3 reader were 405/535 nm for LY and 492/635 nm for CDCF; while in the Enspire reader, NMQ was measured at 360/430 nm excitation/emission wavelengths). ABC-related transport was calculated by subtracting passive uptake measured without Mg-ATP from values measured in the presence of Mg-ATP.

Usually IC50 stands for the concentration that inhibits the measured activity by half. On to `C[C@H]1CCCC(=O)CCC/C=C/c2cc(O[C@@H]3O[C@H](C(=O)O)[C@@H](O)[C@H](O)[C@H]3O)cc(O)c2C(=O)O1` [Z14GA, Zearalenone-14-glucuronide], for which the “inhibition of CYP3A4 (decrease in metabolite formation)” value at CYP3A4 (each 20 μM, 180 min) is reported as “no effects”. The IC50 is greater than 20 µM on OATP1A2 (SR101 0.5 μM, 10 min, A431 cells, read-out: IC50 for OATP1A2) and greater than 10 µM on human MRP2 (Sf9 membrane vesicles, read-out: IC50 for MRP2-mediated CDCF transport).
A word on the inhibition: it is the share of the control response that was lost under treatment. For `C[C@H]1CCCC(=O)CCC/C=C/c2cc(OS(=O)(=O)O)cc(O)c2C(=O)O1` [Z14S, zearalenone-14-sulfate], the inhibition at 180 min, 20 μM at CYP3A4 (human, pH 7.5, each 20 μM, read-out: inhibition of CYP3A4 (decrease in metabolite formation)) is roughly 45%. On OATP1A2, this molecule yielded an IC50 of 1.4 µM. Also, the “decrease in OATP1A2 transport activity” value on OATP1A2 (20 μM, SR101 substrate, A431 cells) was 80–100%. In addition, the “effect on MRP2-dependent transport of CDCF” value on human MRP2 (0–50 μM) is given as “weak inhibitory effect”.
